Experimental data from patent US9783490B2, “Antimicrobial compounds, their synthesis and applications thereof” (The Secretary of State for Health, priority 2012, dated 2017).

Columns and labels:
E. coli (MTCC 443) = assay: Minimum Inhibitory Concentration, micro-dilution broth; format: cell-based, Escherichia coli; conditions: Drug sensitive bacteria
Protocol: (§1) Microorganisms and Culture Conditions: Bacterial strains, S. aureus (MTCC 737) and E. coli (MTCC 443) are purchased from MTCC (Chandigarh, India). MRSA (ATCC 33591), Pseudomonas aeruginosa (ATCC 4676), […]-lactamase producing and drug-resistant Klebsiella pneumonia (ATCC700603), Enterococcus faecium (ATCC 19634) and vancomycin resistant Enterococcus faecium (ATCC 51559) are obtained from ATCC (Rockville, Md., USA).
(§2) E. coli is cultured in Luria Bertani broth (10 g of tryptone, 5 g of yeast extract, and 10 g of NaCl in 1000 mL of sterile distilled water (pH −7) while S. aureus, Pseudomonas aeruginosa (ATCC 4676) and MRSA are grown in Yeast-dextrose broth (1 g of beef extract, 2 g of yeast extract, 5 g of peptone and 5 g of NaCl in 1000 mL of sterile distilled water). For all Enterococcus faecium, Brain Heart Infusion broth (BHI) is used. For solid media 5% agar was used along with above mentioned composition. K. pneumonia was grown in nutrient media (3 g of beef extract and 5 g of peptone in 1000 mL of sterile distilled water). The bacterial samples were freeze dried and stored at −80° C. 5 μl of these stocks were added to 3 mL of the nutrient broth and the culture was grown for 6 h at 37° C. prior to the experiments.
(§3) Antibacterial activity is reported as Minimum Inhibitory Concentration (MIC), i.e. the lowest concentration of the antimicrobial agent that will inhibit the growth of a microorganism after overnight incubation. Water-soluble ACK, NCK and BCK series of compounds are assayed in a modified micro-dilution broth format. Stock solutions are made by serially diluting the compounds using autoclaved Millipore water. Bacteria, to be tested are grown for about 6 hrs in the suitable media containing ˜10^9 cfu/mL (determined through dilution plate technique by spread plate method), which is then diluted to 10^5 cfu/mL using nutrient media. 50 μL of serially diluted compound is added to a 96 well plate containing 150 μL bacterial solutions. Two controls are made; one containing 150 μL of media and 50 μL of compound and the other containing 200 μL of bacterial solution. […] MIC value is determined by taking the average of triplicate O.D. values for each concentration and plotting it against concentration using Origin Pro 8.0 software. The data is then subjected to sigmoidal fitting. From the curve, MIC value is determined, as the point in the curve where the O.D. is similar to that of control having no bacteria. The MIC values and errors of independent experiments are reported as average and standard deviation of triplicates.

MRSA (ATCC 33591) = assay: as above; format: cell-based, Methicillin resistant S. aureus
Protocol: as §1, §2, §3

human RBCs = assay: Haemolytic activity (HC50); format: cell-based
Protocol: Erythrocytes are isolated from freshly drawn, heparinized human blood and re-suspended to 5 vol % in PBS (pH 7.4). In a 96-well microtiter plate, 150 μl of erythrocyte suspension is added to 50 μl of serially diluted compound. Two controls are made, one without compound and other with 50 μl of 1 vol % solution of Triton X-100. The plate is incubated for about 1 hr at a temperature of about 37° C. The plate is then centrifuged at 3,500 rpm for about 5 min, 100 μl of the supernatant from each well is transferred to a fresh microtiter plate, and absorbance at 540 nm is measured. Percentage of hemolysis is determined as (A−A0)/(Atotal−A0)×100, where A is the absorbance of the test well, A0 the absorbance of the negative controls (without compound), and A total the absorbance of 100% hemolysis wells (with Triton X-100), when absorbance is read at 540 nm.
Toxicity studies of the compounds are carried out on freshly drawn human RBCs. Toxicity of the antimicrobial compounds of the present disclosure is defined by their HC50 values illustrated in Table 3, i.e. the concentration of compound at which 50% of the blood cells are lysed. Haemolytic studies conducted herein illustrates that the antimicrobial compounds provided by the instant disclosure are selective towards drug sensitive bacteria and drug resistant bacteria over human RBCs, thus establishing the non-toxicity of the present compounds.

bacteria = assay: Minimum inhibitory concentration, bacterium not given; format: cell-based
Protocol: as §3

[1] = tested on: Pseudomonas aeruginosa (ATCC 4676); assay: Minimum Inhibitory Concentration, micro-dilution broth; format: cell-based; conditions: Drug sensitive bacteria
Protocol: as §1, §2, §3

[2] = tested on: vancomycin resistant Enterococcus faecium (ATCC 51559); assay: as above; format: cell-based; conditions: Drug resistant bacteria
Protocol: as §1, §2, §3

[3] = tested on: Enterococcus faecium (ATCC 19634); assay: as above; format: cell-based
Protocol: as §1, §2, §3

[4] = tested on: drug-resistant Klebsiella pneumonia (ATCC700603); assay: as above; format: cell-based; conditions: Drug resistant bacteria
Protocol: as §1, §2, §3

S. aureus (MTCC 737) = assay: as above; format: cell-based, Staphylococcus aureus; conditions: Drug sensitive bacteria
Protocol: as §1, §2, §3

Lys-N-octylaminodecane [Dec-CK-8]
Minimum Inhibitory Concentration E. coli (E. coli (MTCC 443)): 3.1 µg/mL
MIC value against methicillin-resistant S. aureus (MRSA (ATCC 33591)): 3 µg/mL
Minimum Inhibitory Concentration MRSA (MRSA (ATCC 33591); Drug resistant bacteria): 3 µg/mL
HC50 (human RBCs): 82 µg/mL
HC50 values (human RBCs): 82 µg/mL
active concentration against all bacteria (bacteria): below 5.6 μg/ml
Minimum Inhibitory Concentration P. aeruginosa [1]: 4.2 µg/mL
Minimum Inhibitory Concentration VRE [2]: 3.3 µg/mL
MIC value against E. faecium [3]: 3 µg/mL
Minimum Inhibitory Concentration E. faecium ([3]; Drug sensitive bacteria): 3 µg/mL
Minimum Inhibitory Concentration K. pneumonia [4]: 5.6 µg/mL
Minimum Inhibitory Concentration S. aureus (S. aureus (MTCC 737)): 3.1 µg/mL
